According to ChEMBL document CHEMBL6074685, “Design, synthesis and biological evaluation of novel diaryl-substituted fused nitrogen heterocycles as tubulin polymerization inhibitors to overcome multidrug resistance in vitro and in vivo” (Eur J Med Chem, 2025):
In brackets after ≈: the same amount, converted by molar mass. Activity calls are given as the source filed them. The calls are words filed in the database; no cut-off is given here.

Experiments:
[1] = test system: A549/TR; assay: Antiproliferative activity against human A549/T cell assessed as cell growth inhibition incubated for 48 hrs by MTT assay; assay type: functional, cell-based
[2] = test system: A549; assay: Antiproliferative activity against human A549 cells assessed as cell growth inhibition incubated for 48 hrs by MTT assay; conditions: A549, 48 h
[3] = Resistance index, ratio of IC50 for human A549/T cells to IC50 for human A549 cells; assay type: functional
[4] = molecular target: Tubulin (Homo sapiens) (UniProt P68371+Q9H4B7+P0DPH7+P68366+Q13509+Q71U36+P04350+Q3ZCM7+P07437+P68363+Q9BQE3+Q6PEY2+Q13885+Q9BVA1+Q9BUF5); assay: Disruption of microtubule network in human A549/T cell assessed as disorganization of tubulin cytoskeleton at 1000 nM incubated for 24 hrs by immunofluorescence staining based confocal microscopy analysis
[5] = test system: A549; assay: Inhibition of colony formation in human A549 cells at 1 uM incubated for 48 hrs by crystal violet staining based analysis; assay type: functional, cell-based
[6] = test system: A549/TR; assay: Inhibition of colony formation in human A549/T cell at 1 uM incubated for 48 hrs by crystal violet staining based analysis; assay type: functional
[7] = test system: A549/TR; assay: Antiproliferative activity against human A549/T cell assessed as cell growth inhibition in presence of verapamil incubated for 48 hrs by MTT assay; assay type: functional, cell-based
[8] = test system: A549/TR; assay: Antitumor activity against human A549/T cell xenografted in BALB/c mouse assessed as reduction in tumor growth at 15 mg/kg, ip administered every 2 days; assay type: functional, organism-based; conditions: time 2.0 day
[9] = Toxicity in BALB/c mouse implanted with human A549/T cell assessed as change in body weight at 15 mg/kg, ip administered every 2 days; assay type: organism-based; conditions: in vivo, 48 h, time 2 day
[10] = Inhibition of pig brain tubulin polymerization measured upto 20 mins by absorbance based assay; set-up: species or system Sus scrofa
[11] = Metabolic stability in human liver microsome assessed as half life measured upto 50 mins by LC-MS/MS analysis; assay type: ADME; conditions: liver microsomes
[12] = Metabolic stability in human liver microsome assessed as intrinsic clearance measured upto 50 mins by LC-MS/MS analysis; assay type: ADME; conditions: liver microsomes, read-out: CLH
[13] = Aqueous solubility of the compound […] at pH 7.4 by HPLC analysis; assay type: physicochemical

SMILES | IC50 [1] [µM] | IC50 [2] [nM] | Ratio IC50 [3] | further results
COc1ccc(-c2cc(-c3cc(OC)c(OC)c(OC)c3)c3nc[nH]c3c2)cn1 | 0.39 | 290 | 1.34 | 
COc1cc(-c2cc(-c3ccc(C)c(N)c3)cc3[nH]cnc23)cc(OC)c1OC | 0.5 | 240 | 2.08 | 
COc1ccc(-n2c(=O)[nH]c3cnc(-c4cc(OC)c(OC)c(OC)c4)cc32)cc1O | > 50 |  |  | 
COc1ccc(-c2cc(-c3ccc(OC)c(N)c3)cc3[nH]cnc23)cc1 | 16.6 | 11000 | 1.5 | 
COc1ccc(-c2cc(-c3cc(OC)c(OC)c(OC)c3)c3[nH]c(=O)[nH]c3c2)cc1F | 3.02 | 1270 | 2.37 | 
CC(=O)O[C@H]1C(=O)[C@@]2(C)[C@H]([C@H](OC(=O)c3ccccc3)[C@]3(O)C[C@H](OC(=O)[C@H](O)[C@@H](NC(=O)c4ccccc4)c4ccccc4)C(C)=C1C3(C)C)[C@]1(OC(C)=O)CO[C@@H]1C[C@@H]2O [PACLITAXEL] | > 50 | 2 | >25000 | Activity [4]: Active; inhibition [5]: Active; inhibition [6]: inactive; Activity [7]: Active; Activity [8]: inactive; Activity [9]: Non-toxic
COc1cc(-c2cc(-c3ccc(C4CC4)cc3)cc3[nH]cnc23)cc(OC)c1OC | 6.76 | 4920 | 1.34 | 
COc1ccc2nc(-c3ccc(OC)c(F)c3)nc(Nc3cc(OC)c(OC)c(OC)c3)c2c1 | 8.91 | 2040 | 4.37 | 
COc1ccc(-c2cc3c([nH]c(=O)n3-c3cc(OC)c(OC)c(OC)c3)c(C(N)=O)n2)cc1O | 33.8 |  |  | 
COc1ccc(-c2cncc3[nH]c(=O)n(Cc4cc(OC)c(OC)c(OC)c4)c23)cc1O | > 50 |  |  | 
COc1ccc(-c2nc(Nc3cc(OC)c(OC)c(OC)c3)c3cc(OC)c(OC)cc3n2)cc1F | > 50 | > 50000 |  | 
COc1ccc(-c2cc(Oc3cc(OC)c(OC)c(OC)c3)c3nc[nH]c3c2)cc1F | 10.2 | 5130 | 1.99 | 
CC[C@]1(O)C[C@H]2CN(CCc3c([nH]c4ccccc34)[C@@](C(=O)OC)(c3cc4c(cc3OC)N(C=O)[C@H]3[C@@](O)(C(=O)OC)[C@H](OC(C)=O)[C@]5(CC)C=CCN6CC[C@]43[C@@H]65)C2)C1 [VINCRISTINE] | 4.35 | 21 | 207 | 
COc1cc(-c2cc(Br)cc3[nH]cnc23)cc(OC)c1OC | 37.1 | 28900 | 1.28 | 
COc1ccc(-c2cc(-c3cc(OC)c(OC)c(OC)c3)c3nc[nH]c3c2)cc1 | 1.51 | 780 | 1.94 | 
COc1ccc(-c2cc(-c3cc(OC)c(OC)c(OC)c3)c3cc[nH]c3c2)cc1F | 15.8 | 4820 | 3.29 | 
COc1ccc(-c2cc(-c3cc(OC)c(OC)c(OC)c3)c3nc(C)[nH]c3c2)cc1F | 10.2 | 5370 | 1.9 | 
COc1cc(-c2cc(-c3ccc(C)cc3)cc3[nH]cnc23)cc(OC)c1OC | 0.97 | 680 | 1.42 | 
COc1ccc(-c2cc(-c3cc(OC)c(OC)c(OC)c3)c3nc[nH]c3c2)cc1F | 0.3 | 110 | 2.73 | 
COc1ccc(-c2cc(-c3cc(OC)c(OC)c(OC)c3)c3nc[nH]c3c2)cc1O | 0.24 | 59 | 4.06 | 
COc1ccc(/C=C\c2cc(OC)c(OC)c(OC)c2)cc1O [COMBRETASTATIN A4] | 0.013 |  |  | IC50 [10]: 1400 nM; half-life [11]: 14 min; CLint scaled [12]: 90 mL/min/kg; solubility [13]: 1 µg/mL (≈ 3.16 µM); Activity [8]: Active; Activity [9]: Non-toxic
COc1ccc(-c2cc(-c3cc(OC)c(OC)c(OC)c3)c3nc(C)[nH]c3c2)cc1O | 1.9 | 530 | 3.58 | 
CC(=O)O[C@@]12CO[C@@H]1C[C@H](O)[C@@]1(C)C(=O)[C@H](O)C3=C(C)[C@@H](OC(=O)[C@H](O)[C@@H](NC(=O)OC(C)(C)C)c4ccccc4)C[C@@](O)([C@@H](OC(=O)c4ccccc4)[C@H]21)C3(C)C [DOCETAXEL ANHYDROUS] | 7.84 | 1 | 7840 | Activity [7]: Active
COc1ccc(-c2cc(-c3cc(OC)c(OC)c(OC)c3)c3nc[nH]c3c2)cc1CO | 1.58 | 470 | 3.36 | 
COc1cc(-c2cc(Cl)cc3[nH]cnc23)cc(OC)c1OC | > 50 | > 50000 |  | 
